This is an account of results in patent US20070128179A1 (priority 2005, published 2007).

One data set deals with Staphylococcus aureus. It is filed as cell-based.
For the next data set, the system named is Enterobacter aerogenes. The format is cell-based.
A further data set concerns Proteus vulgaris. The format is cell-based.
Another data set relates to Proteus mirabilis. The format is cell-based.
The subject of the next data set is Pseudomonas aeruginosa. The format is cell-based.
Another data set deals with Escherichia coli. The format is cell-based.
Data set [1] deals with B. pseudomallei (strain TES). Briefly: microbe, parasite or virus in culture. It is filed as cell-based, Burkholderia pseudomallei. The following applies: 24 h; for MIC: Burkholderia pseudomallei, read-out: MIC (breaking point).
The next data set has as its system THP-1 cells. The format is cell-based, Human.
Data set [2] has as its system B. pseudomallei (strain KHW). The following applies: 24 h.
The subject of data set [3] is severe meloidosis patients. The following applies: human, in vivo; cited from earlier work.
The test system of data set [4] is B. pseudomallei (strain KHW). The data set is described as follows: microbe, parasite or virus in culture. Particulars: Burkholderia pseudomallei, 24 h, read-out: MIC (breaking point).
The test system of data set [5] is THP-1 cells (Human macrophage).
The test system of the next data set is Burkholderia cepacia. Particulars: 50 μg/mL; cited from earlier work.
The subject of the next data set is 23 tested strains. The following applies: cited from earlier work.

Values after ≈ are worked out from the molar mass of the structure shown. Where two headings read alike, the source gives them in different places. No end group written: not given here.

For the compound Penicillin, the “Size of inhibition zone, Sa (+)” value in the data set with Staphylococcus aureus was determined as 17.4 ± 0.89 mm. For the same compound, the “Size of inhibition zone, Ea (−)” value in the data set on Enterobacter aerogenes was 18.3 ± 0.85 mm. In addition, in the data set on Proteus vulgaris, the “Size of inhibition zone, Pv (−)” value turned out to be 16.7 ± 0.98 mm. In the data set with Proteus mirabilis, the “Size of inhibition zone, Pm (−)” value is 27.8 ± 1.10 mm. For the same compound, the “Size of inhibition zone, Pa (−)” value with Pseudomonas aeruginosa was found to be 16.6 ± 0.89 mm. The “Size of inhibition zone, Ec (−)” value in the data set with Escherichia coli is reported as 15.2 ± 0.84 mm.
For orientation: mortality means the share of the test organisms that died. Consider `CC(C)(O/N=C(\C(=O)N[C@@H]1C(=O)N2C(C(=O)[O-])=C(C[n+]3ccccc3)CS[C@H]12)c1csc(N)n1)C(=O)O` [Ceftazidime], for which the “optical density (560 nm) of bacterial growth, strain TES” value in data set [1] (0.03125 mg/mL) is 0.49; in data set [1] (0.0625 mg/mL) it was 0.35; in data set [1] (0.125 mg/mL) it was 0.09; in data set [1] (0.25 mg/mL), 0.03; in data set [1] (0.5 mg/mL), 0.01. For the same compound, the “percentage in parentheses (susceptibility), strain TES” value in data set [1] (0.03125 mg/mL) was “(33%)”; in [1] (0.0625 mg/mL) it was “(47%)”; in data set [1] (0.25 mg/mL), “(86%)”; in [1] (0.5 mg/mL), “(88%)”. Further, the MIC in data set [1] and in data set [4] was 125 µg/mL (≈ 229 µM) throughout. Moreover, the “gene expression” value in the data set on THP-1 cells is listed as “majority of the genes were up regulated”. The “optical density (560 nm) of bacterial growth, strain KHW” value in [2] (0.03125 mg/mL) is on record as 0.44; in data set [2] (0.0625 mg/mL), 0.24; in [2] (0.125 mg/mL) it was 0.04; in data set [2] (0.25 mg/mL), 0.05; in [2] (0.5 mg/mL), 0.08. For the same compound, the “percentage in parentheses (susceptibility), strain KHW” value in data set [2] (0.03125 mg/mL) is “(22%)”; in data set [2] (0.0625 mg/mL), “(24%)”; in data set [2] (0.125 mg/mL) it was “(62%)”; in data set [2] (0.25 mg/mL), “(61%)”; in data set [2] (0.5 mg/mL), “(58%)”. Moreover, the mortality in data set [3] was 37%.
With Triton X-100, the cell death in [5] is 90%. The compound further registered a hemolytic activity in the data set on human red blood cells of 100%.
In the case of `O=C(N[C@H](CO)[C@H](O)c1ccc([N+](=O)[O-])cc1)C(Cl)Cl` [Chloramphenicol], the “Size of inhibition zone, Sa (+)” value in the data set on Staphylococcus aureus is reported as 35.1 ± 1.26 mm. For the same compound, in the data set with Enterobacter aerogenes, the “Size of inhibition zone, Ea (−)” value turned out to be 27.8 ± 1.09 mm. In the data set with Proteus vulgaris, the “Size of inhibition zone, Pv (−)” value came to 24.6 ± 0.86 mm. In addition, the “Size of inhibition zone, Pm (−)” value with Proteus mirabilis came out at 33 ± 2.34 mm. Moreover, in the data set with Pseudomonas aeruginosa, the “Size of inhibition zone, Pa (−)” value is 25 ± 0.70 mm. Moreover, the “Size of inhibition zone, Ec (−)” value with Escherichia coli stood at 31.8 ± 1.64 mm. Besides, the “optical density (560 nm) of bacterial growth, strain TES” value in data set [1] (0.03125 mg/mL) amounted to 0.37; in data set [1] (0.0625 mg/mL) it was 0.34; in data set [1] (0.125 mg/mL), 0.07; in [1] (0.25 mg/mL), 0.04; in data set [1] (0.5 mg/mL), 0.026. The “percentage in parentheses (susceptibility), strain TES” value in data set [1] (0.03125 mg/mL) is listed as “(38%)”; in data set [1] (0.0625 mg/mL) it was “(41%)”; in [1] (0.25 mg/mL) it was “(73%)”; in data set [1] (0.5 mg/mL), “(74%)”. For the same compound, the MIC in data set [1] and in [4] was 125 µg/mL (≈ 387 µM) throughout. Also, the “optical density (560 nm) of bacterial growth, strain KHW” value in [2] (0.03125 mg/mL) is 0.51; in data set [2] (0.0625 mg/mL) it was 0.42; in data set [2] (0.125 mg/mL) it was 0.07; in data set [2] (0.25 mg/mL) it was 0.03; in [2] (0.5 mg/mL), 0.01. For the same compound, the “percentage in parentheses (susceptibility), strain KHW” value in [2] (0.03125 mg/mL) was “(1%)”; in [2] (0.0625 mg/mL) it was “(10%)”; in data set [2] (0.125 mg/mL), “(60%)”; in data set [2] (0.25 mg/mL), “(64%)”; in data set [2] (0.5 mg/mL), “(68%)”. Also, in data set [3], the mortality is reported as 74%.
Regarding “hBD-3 (GIINTLQKYYCRVRGGRCAVLSCLPKEEQIGKCSTRGRKCCRRKK; ends and bridges not checked; cysteine pairing not given here; UniProt P81534 23-67, looked up)”, the “effect” value in the data set with Burkholderia cepacia is on record as “did not show any effect”. Further, the MBCs in the data set with 23 tested strains was more than 100 µg/mL.
As to `[H]/N=C(/N)N[C@H]1[C@H](O)[C@@H](O)[C@H](O[C@@H]2O[C@@H](C)[C@](O)(C=O)[C@H]2O[C@@H]2O[C@@H](CO)[C@H](O)[C@@H](O)[C@@H]2NC)[C@@H](N/C(N)=N\[H])[C@@H]1O` [Streptomycin], the “Size of inhibition zone, Sa (+)” value in the data set on Staphylococcus aureus is listed as 30.3 ± 0.77 mm. In addition, the “Size of inhibition zone, Ea (−)” value in the data set with Enterobacter aerogenes came out at 15.7 ± 0.44 mm. The “Size of inhibition zone, Pv (−)” value in the data set with Proteus vulgaris is 18.2 ± 0.83 mm. Also, the “Size of inhibition zone, Pm (−)” value in the data set with Proteus mirabilis was 27.8 ± 1.09 mm. Besides, the “Size of inhibition zone, Pa (−)” value in the data set with Pseudomonas aeruginosa is given as 16.5 ± 0.50 mm. Also, the “Size of inhibition zone, Ec (−)” value with Escherichia coli came out at 29.4 ± 0.89 mm.
With `CC[C@H](C)[C@H](NC(=O)CN)C(=O)NCC(=O)N[C@@H](C)C(=O)N[C@H](C(=O)N[C@@H](CC(C)C)C(=O)N[C@@H](CCCCN)C(=O)N[C@H](C(=O)N[C@@H](CC(C)C)C(=O)N[C@H](C(=O)N[C@H](C(=O)NCC(=O)N[C@@H](CC(C)C)C(=O)N1CCC[C@H]1C(=O)N[C@@H](C)C(=O)N[C@@H](CC(C)C)C(=O)N[C@H](C(=O)N[C@@H](CO)C(=O)N[C@@H](Cc1c[nH]c2ccccc12)C(=O)N[C@H](C(=O)N[C@@H](CCCCN)C(=O)N[C@@H](CCCNC(=N)N)C(=O)N[C@@H](CCCCN)C(=O)N[C@@H](CCCNC(=N)N)C(=O)N[C@@H](CCC(N)=O)C(=O)N[C@@H](CCC(N)=O)C(N)=O)[C@@H](C)CC)[C@@H](C)CC)[C@@H](C)O)[C@@H](C)O)C(C)C)C(C)C` [melittin], the “MIC (breaking point)” value in data set [2] worked out at 250 µg/mL (≈ 87.8 µM).
